Laboratory results: EPA's CvTdb concentration-time database

Assays:
Mouse = test: concentration in plasma after dosing; details: dosed: 2-Hydroxy-4-methoxybenzophenone, B6C3F1
Rat [1] = test: concentration in plasma after dosing
Rat [2] = test: concentration in brain after dosing
rat [3] = test: concentration in blood after dosing; negative times count back from the end of exposure; details: dosed: 1,1-dichloroethylene, inhalation, duration: 3 hr, male, Sprague-Dawley

O=C(c1ccccc1)c1ccc(O)cc1O [2,4-Dihydroxybenzophenone]
concentration in plasma [µg/mL], Mouse
Details	0.25 h	2 h	2.5 min	3 h	10 min
50 mg/kg, iv, Female	0.8	0.0446	–	0.0631	1.7
50 mg/kg, iv, Male	1.44	0.23	–	0.0705	3.71
100 mg/kg, oral, Female	0.721	0.0619	0.044	0.0502	0.383
100 mg/kg, oral, Male	0.171	0.32	0.12	0.109	0.195
250 mg/kg, oral, Female	1.34	0.185	0.0712	0.12	1.84
250 mg/kg, oral, Male	0.988	0.338	0.115	0.265	0.542
500 mg/kg, oral, Female	3.28	0.309	–	–	2.8
500 mg/kg, oral, Male	1.51	0.282	–	–	1.11

concentration in plasma [µg/mL], Rat [1], dosed: 2-Hydroxy-4-methoxybenzophenone, oral, F344
Details	0.25 h	0.5 h	2.5 min	3 h	4 h	5 h	6 h	10 h	10 min	12 h
100 mg/kg, Female	0.174	0.145	0.0643	0.0823	0.0542	0.0603	–	–	0.2	–
100 mg/kg, Male	0.0522	0.114	–	0.0382	0.0656	0.0558	–	–	0.031	–
250 mg/kg, Female	0.41	0.658	–	0.166	0.157	–	–	0.0898	0.0572	–
250 mg/kg, Male	0.109	0.218	–	0.114	0.0923	–	–	0.0917	0.0394	–
500 mg/kg, Female	0.287	0.688	–	–	0.296	–	–	0.242	0.178	0.185
500 mg/kg, Male	0.18	0.192	–	–	0.233	–	0.171	–	2.43	0.246

CC(C)[C@]12CC(=O)[C@H](C)[C@H]1C2 [alpha-Thujone]
dosed: alpha-Thujone, oral
Details	concentration in brain, Rat [2] [ng/g]	concentration in plasma, Rat [1] [µg/mL]
0.5 h, 25 mg/kg, Female, Harlan Sprague Dawley	801	0.189
0.5 h, 25 mg/kg, Male, Harlan Sprague Dawley	689	0.407
0.5 h, 50 mg/kg, Female, Harlan Sprague Dawley	1350	0.474
0.5 h, 50 mg/kg, Male, Harlan Sprague Dawley	2470	0.71
1.5 h, 25 mg/kg, Male, Harlan Sprague Dawley	299	0.156
1.5 h, 50 mg/kg, Female, Harlan Sprague Dawley	966	0.491
1.5 h, 50 mg/kg, Male, F344	952	0.293
1.5 h, 50 mg/kg, Male, Harlan Sprague Dawley	677	0.116
2 min, 25 mg/kg, Female, Harlan Sprague Dawley	77.8	0.0297
2 min, 25 mg/kg, Male, Harlan Sprague Dawley	21	0.0452
2 min, 50 mg/kg, Female, Harlan Sprague Dawley	44.8	0.109
2 min, 50 mg/kg, Male, Harlan Sprague Dawley	40.6	0.0119
3 h, 25 mg/kg, Female, Harlan Sprague Dawley	390	0.104
3 h, 25 mg/kg, Male, Harlan Sprague Dawley	122	0.135
3 h, 50 mg/kg, Female, Harlan Sprague Dawley	517	0.214
3 h, 50 mg/kg, Male, Harlan Sprague Dawley	1130	0.255
5 min, 25 mg/kg, Male, Harlan Sprague Dawley	414	0.146
5 min, 50 mg/kg, Female, F344	2010	1.48
5 min, 50 mg/kg, Female, Harlan Sprague Dawley	508	0.427
6 h, 25 mg/kg, Female, Harlan Sprague Dawley	270	0.0847
6 h, 25 mg/kg, Male, Harlan Sprague Dawley	77.1	0.119
6 h, 50 mg/kg, Female, F344	437	0.146
6 h, 50 mg/kg, Female, Harlan Sprague Dawley	648	0.209
6 h, 50 mg/kg, Male, Harlan Sprague Dawley	518	0.174
10 min, 25 mg/kg, Male, Harlan Sprague Dawley	689	0.323
10 min, 50 mg/kg, Female, F344	4550	1.2
10 min, 50 mg/kg, Female, Harlan Sprague Dawley	1030	0.547
10 min, 50 mg/kg, Male, F344	6400	2.2
10 min, 50 mg/kg, Male, Harlan Sprague Dawley	6510	2.05
12 h, 25 mg/kg, Female, Harlan Sprague Dawley	12.7	0.00331
12 h, 25 mg/kg, Male, Harlan Sprague Dawley	–	0.0164
12 h, 50 mg/kg, Female, Harlan Sprague Dawley	48.5	0.0243
12 h, 50 mg/kg, Male, Harlan Sprague Dawley	31.7	0.0116

dosed: 76231-76-0, 3.0 mg/kg, iv, F344
Details	concentration in brain, Rat [2] [ng/g]	concentration in plasma, Rat [1] [µg/mL]
2 h, Female	16.8	0.00441
2.5 h, Female	11.6	0.00279
3 h, Female	11.6	–
4 h, Male	26.3	–
12 h, Male	–	0.00395

C=C(Cl)Cl [1,1-dichloroethylene]
rat [3]
Details	concentration in blood [µg/mL]
0.1331 h, 75 ppm	0.162
0.1373 h, 300 ppm	2.12
0.1374 h, 25 ppm	0.0614
0.1383 h, 150 ppm	0.122
0.1969 h, 75 ppm	0.117
0.1973 h, 150 ppm	0.108
0.1979 h, 25 ppm	0.0386
0.2044 h, 300 ppm	1.74
0.2603 h, 150 ppm	0.0929
0.2608 h, 75 ppm	0.0837
0.261 h, 25 ppm	0.0329
0.2757 h, 300 ppm	1.35
0.3322 h, 75 ppm	0.0625
0.3352 h, 300 ppm	1.06
0.3356 h, 25 ppm	0.0292
0.3396 h, 150 ppm	0.068
0.3946 h, 150 ppm	0.0616
0.3984 h, 25 ppm	0.0266
0.3984 h, 300 ppm	0.874
0.3991 h, 75 ppm	0.0549
0.496 h, 25 ppm	0.0254
0.4961 h, 150 ppm	0.06
0.508 h, 300 ppm	0.801
0.5085 h, 75 ppm	0.0508
4 s, 75 ppm	0.34
13 s, 150 ppm	0.473
118 s, 25 ppm	0.126
132 s, 75 ppm	0.312
133 s, 150 ppm	0.291
137 s, 300 ppm	3.09
232 s, 75 ppm	0.275
238 s, 25 ppm	0.0789
238 s, 150 ppm	0.188
253 s, 300 ppm	2.5

rat [3], during exposure
Details	concentration in blood [µg/mL]
-14 s, 25 ppm	0.184
-8 s, 300 ppm	4.15
-2.956 h, 25 ppm	0.0503
-2.956 h, 75 ppm	0.1
-2.954 h, 300 ppm	1.03
-2.951 h, 150 ppm	0.083
-2.903 h, 25 ppm	0.0674
-2.899 h, 75 ppm	0.139
-2.899 h, 150 ppm	0.154
-2.893 h, 300 ppm	1.32
-2.861 h, 150 ppm	0.19
-2.854 h, 300 ppm	1.49
-2.853 h, 75 ppm	0.17
-2.846 h, 25 ppm	0.0927
-2.793 h, 25 ppm	0.128
-2.793 h, 300 ppm	1.68
-2.792 h, 150 ppm	0.271
-2.787 h, 75 ppm	0.188
-2.729 h, 75 ppm	0.212
-2.727 h, 25 ppm	0.143
-2.727 h, 150 ppm	0.302
-2.727 h, 300 ppm	1.84
-2.657 h, 150 ppm	0.325
-2.653 h, 25 ppm	0.149
-2.653 h, 300 ppm	1.92
-2.652 h, 75 ppm	0.253
-2.583 h, 300 ppm	2.08
-2.582 h, 75 ppm	0.263
-2.575 h, 25 ppm	0.143
-2.568 h, 150 ppm	0.371
-2.498 h, 25 ppm	0.155
-2.494 h, 300 ppm	2.2
-2.492 h, 75 ppm	0.283
-2.49 h, 150 ppm	0.408
-2.396 h, 300 ppm	2.25
-2.393 h, 25 ppm	0.162
-2.391 h, 75 ppm	0.301
-2.389 h, 150 ppm	0.421
-2.197 h, 75 ppm	0.333
-2.194 h, 25 ppm	0.162
-2.194 h, 150 ppm	0.424
-2.194 h, 300 ppm	2.41
-1.996 h, 300 ppm	2.6
-1.995 h, 25 ppm	0.166
-1.99 h, 75 ppm	0.335
-1.988 h, 150 ppm	0.461
-1.743 h, 300 ppm	2.76
-1.742 h, 25 ppm	0.171
-1.741 h, 75 ppm	0.34
-1.738 h, 150 ppm	0.453
-1.5 h, 25 ppm	0.176
-1.497 h, 300 ppm	3.05
-1.496 h, 75 ppm	0.346
-1.493 h, 150 ppm	0.463
-1.003 h, 300 ppm	3.38
-1.002 h, 150 ppm	0.45
-0.9974 h, 25 ppm	0.172
-0.9966 h, 75 ppm	0.338
-0.5007 h, 300 ppm	3.85
-0.4991 h, 150 ppm	0.466
-0.4977 h, 75 ppm	0.337
-0.4481 h, 25 ppm	0.182
